Assay results reported in ChEMBL document CHEMBL2046380, “Synthesis and structure-activity relationship of disubstituted benzamides as a novel class of antimalarial agents” (Bioorg Med Chem Lett, 2012).

Assays:
HepG2 = assay: Cytotoxicity against human HepG2 cells after 72 hrs by […] CellTiterGlo reagent assay; type: cell-based; conditions: HepG2, 72 h
Plasmodium falciparum [1] = assay: Antimalarial activity against […] incubated for 72 hrs by DNA staining based MARK1 growth inhibition assay; type: functional, organism-based
Raji = assay: Cytotoxicity against human Raji cells after 72 hrs by […] CellTiterGlo reagent assay; type: cell-based
Plasmodium falciparum [2] = assay: Antimalarial activity against chloroquine-sensitive Plasmodium falciparum 3D7 incubated for 72 hrs by DNA staining based MAR3D7 growth inhibition assay; type: functional, organism-based; conditions: 3D7, 72 h
HEK293 = assay: Cytotoxicity against human HEK293 cells after 72 hrs by […] CellTiterGlo reagent assay; type: cell-based; conditions: HEK293, 72 h
BJ = assay: Cytotoxicity against human BJ cells after 72 hrs by […] CellTiterGlo reagent assay; type: cell-based

SMILES	EC50 (HepG2) [µM]	EC50 (Plasmodium falciparum [1]) [µM]	EC50 (Raji) [µM]	EC50 (Plasmodium falciparum [2]) [µM]	EC50 (HEK293) [µM]	EC50 (BJ) [µM]
COc1cc2c(cc1OC)C(CC1(C)OCCO1)=NCC2	> 13	> 7.51	> 13	> 7.51	> 13	> 13
COc1ccc(CCNC(=O)CCO[Si](C)(C)C(C)(C)C)cc1OC	4.89	> 7.51	6.9	> 2.58	> 13	> 13
COc1ccc(CCNC(=O)CCCCC(C)=O)cc1OC	> 13	> 7.51	> 13	> 7.51	> 13	> 13
CCOC(=O)CCCCCOc1cccc(CN(C(=O)c2ccc(-c3ccncc3)cc2)C(C)C)c1	> 26	0.0008	> 26	< 0.0008	> 26	> 26
CCCNCc1cccc(OCCCCCC(=O)OCC)c1	> 26	> 15	> 26	> 15	> 26	> 26
CC(C)N(Cc1cccc(OCCCCCC(=O)O)c1)C(=O)c1ccc(-c2ccco2)cc1	> 26	> 15	> 26	> 15	> 26	> 26
CCOC(=O)CCCCCOc1cccc(CN(C(=O)c2ccc(-c3cccc(-c4ccccc4)c3)cc2)C(C)C)c1	> 26	> 15	> 26	> 15	> 26	> 26
CC(C)N(Cc1cccc(OCCCCCC(=O)O)c1)C(=O)c1ccc(-c2c[nH]c3ccccc23)cc1	> 26	> 15	> 26	> 15	> 26	> 26
CCOC(=O)CCCCCOc1cccc(CN(C(=O)c2ccc(-c3cccc(-c4nnc(C)o4)c3)cc2)C(C)C)c1	> 26	> 15	> 26	> 15	> 26	> 26
C#CCCC(=O)NCCc1ccc(OC)c(OC)c1	> 13	> 7.51	> 13	> 7.51	> 13	> 13
Cc1nnc(-c2cccc(-c3ccc(C(=O)N(Cc4cccc(OCCCCCC(=O)O)c4)C(C)C)cc3)c2)o1	> 26	> 15	> 26	> 15	> 26	> 26
CCCN(Cc1ccccc1OCCCCCC(=O)O)C(=O)c1ccc(-c2ccc3c(c2)OCO3)cc1	> 26	> 15	> 26	> 15	> 26	> 26
CCOC(=O)CCCCCOc1ccc(C(O)O)cc1	> 27.2	> 15	> 27.2	> 15	> 27.2	> 27.2
CCOC(=O)CCCCCOc1cccc(CN(C(=O)c2ccc(-c3ccco3)cc2)C(C)C)c1	> 26	> 15	> 26	> 15	> 26	> 26
O=C(O)c1cc(-c2cccs2)nc2ccccc12	> 26	0.822	> 26	0.664	> 26	> 26
CCCN(Cc1ccc(OCCCCCC(=O)OCC)cc1)C(=O)c1ccc(Br)cc1	> 26	> 15	> 26	> 15	> 26	> 26
CCOC(=O)CCCCCOc1cccc(CN(C(=O)c2ccc(-c3cccc(OC(F)(F)F)c3)cc2)C(C)C)c1	> 26	> 15	> 26	> 15	> 26	> 26
C=CCCC1=NCCc2cc(OC)c(OC)cc21	> 13	> 7.51	> 13	> 7.51	> 13	> 13
COC(=O)CCCC1=NCCc2cc(OC)c(OC)cc21	> 13	> 7.51	> 13	> 7.51	> 13	> 13
CCOC(=O)CCCCCOc1cccc(CN(C(=O)c2ccc(-c3ccc4c(c3)OCCO4)cc2)C(C)C)c1	> 24.5	> 13.5	> 24.5	> 13.5	> 24.5	> 24.5
CCCNCc1ccccc1OCCCCCC(=O)OCC	> 26	> 15	> 26	> 15	> 26	> 26
